Results reported in patent publication US20260042731A1, “(2,4-DICHLOROPHENOXY)ACETIC ACID ANALOGS” (CORTEVA AGRISCIENCE LLC, priority 2022, published 2026).
Read-outs that look alike come from different tables or passages of the source.

Key:
[1] = test system: weeds (ABUTH, AMATA, AMBEL, CHEAL, ERICA); assay: Postemergence herbicide evaluation, overall average % weed control across ABUTH, AMATA, AMBEL, CHEAL, ERICA; format: in vivo; details: post-emergence, average over the five weeds, read-out: Overall Ave % Weed Control; for pest or weed control at 280 g/ha: 280 g ae/ha; for pest or weed control at 560 g/ha: 560 g ae/ha
[2] = test system: Abutilon theophrasti (ABUTH), velvetleaf; assay: Postemergence herbicide evaluation, growth of Abutilon theophrasti (ABUTH); format: in vivo; details: Abutilon theophrasti, post-emergence, percent reduction in plant size relative to untreated control, read-out: AVE. ABUTH; for pest or weed control at 280 g/ha: 280 g ae/ha; for pest or weed control at 560 g/ha: 560 g ae/ha
[3] = test system: Amaranthus rudis (AMATA), tall water hemp; assay: Postemergence herbicide evaluation, growth of Amaranthus rudis (AMATA); format: in vivo; details: Amaranthus tuberculatus, post-emergence, percent reduction in plant size relative to untreated control, read-out: Ave. AMATA; for pest or weed control at 280 g/ha: 280 g ae/ha; for pest or weed control at 560 g/ha: 560 g ae/ha
[4] = Volatility of compounds measured by thermogravimetric analysis (TGA); format: physicochemical; details: 70° C.
[5] = test system: Chenopodium album (CHEAL), common lambsquarters; assay: Postemergence herbicide evaluation, growth of Chenopodium album (CHEAL); format: in vivo; details: Chenopodium album, post-emergence, percent reduction in plant size relative to untreated control, read-out: Ave. CHEAL; for pest or weed control at 280 g/ha: 280 g ae/ha; for pest or weed control at 560 g/ha: 560 g ae/ha
[6] = test system: glyphosate resistant Conyza canadensis (L.) (ERICA), horseweed; assay: Postemergence herbicide evaluation, growth of Conyza canadensis (ERICA); format: in vivo; details: Erigeron canadensis, post-emergence, percent reduction in plant size relative to untreated control, read-out: Ave. ERICA; for pest or weed control at 280 g/ha: 280 g ae/ha; for pest or weed control at 560 g/ha: 560 g ae/ha
[7] = test system: Ambrosia artemisiifolia (AMBEL), common ragweed; assay: Postemergence herbicide evaluation, growth of Ambrosia artemisiifolia (AMBEL); format: in vivo; details: Ambrosia artemisiifolia, post-emergence, percent reduction in plant size relative to untreated control, read-out: AVE. AMBEL; for pest or weed control at 280 g/ha: 280 g ae/ha; for pest or weed control at 560 g/ha: 560 g ae/ha

SMILES: O=C(COc1ccc(Cl)cc1Cl)ON(Cc1ccccc1)Cc1ccccc1 [Compound A14, N, N-Dibenzyl-O-(2-(2,4-dichlorophenoxy)acetyl)hydroxylamine]
- pest or weed control at 280 g/ha ([1]; 168 h, 7 DAA): 51%
- pest or weed control at 560 g/ha ([1]; 168 h, 7 DAA): 44%
- pest or weed control at 280 g/ha ([1]; 336 h, 14 DAA): 51%
- pest or weed control at 560 g/ha ([1]; 336 h, 14 DAA): 46%
- pest or weed control at 280 g/ha ([1]; 504 h, 21 DAA): 47%
- pest or weed control at 560 g/ha ([1]; 504 h, 21 DAA): 39%
- pest or weed control at 280 g/ha ([2]; 168 h, 7 DAA): 38%
- pest or weed control at 560 g/ha ([2]; 168 h, 7 DAA): 28%
- pest or weed control at 280 g/ha ([2]; 336 h, 14 DAA): 23%
- pest or weed control at 560 g/ha ([2]; 336 h, 14 DAA): 20%
- pest or weed control at 280 g/ha ([2]; 504 h, 21 DAA): 13%
- pest or weed control at 560 g/ha ([2]; 504 h, 21 DAA): 15%
- pest or weed control at 280 g/ha ([3]; 168 h, 7 DAA): 63%
- pest or weed control at 560 g/ha ([3]; 168 h, 7 DAA): 55%
- pest or weed control at 280 g/ha ([3]; 336 h, 14 DAA): 50%
- pest or weed control at 560 g/ha ([3]; 336 h, 14 DAA): 48%
- pest or weed control at 280 g/ha ([3]; 504 h, 21 DAA): 53%
- pest or weed control at 560 g/ha ([3]; 504 h, 21 DAA): 43%
- TGA Data (rate of weight loss, volatility) [4]: 0.4 (70° C.) μg/min
- pest or weed control at 280 g/ha ([5]; 168 h, 7 DAA): 60%
- pest or weed control at 560 g/ha ([5]; 168 h, 7 DAA): 58%
- pest or weed control at 280 g/ha ([5]; 336 h, 14 DAA): 68%
- pest or weed control at 560 g/ha ([5]; 336 h, 14 DAA): 63%
- pest or weed control at 280 g/ha ([5]; 504 h, 21 DAA): 70%
- pest or weed control at 560 g/ha ([5]; 504 h, 21 DAA): 63%
- pest or weed control at 280 g/ha ([6]; 168 h, 7 DAA): 43%
- pest or weed control at 560 g/ha ([6]; 168 h, 7 DAA): 40%
- pest or weed control at 280 g/ha ([6]; 336 h, 14 DAA): 50%
- pest or weed control at 560 g/ha ([6]; 336 h, 14 DAA): 50%
- pest or weed control at 280 g/ha ([6]; 504 h, 21 DAA): 43%
- pest or weed control at 560 g/ha ([6]; 504 h, 21 DAA): 40%
- pest or weed control at 280 g/ha ([7]; 168 h, 7 DAA): 50%
- pest or weed control at 560 g/ha ([7]; 168 h, 7 DAA): 40%
- pest or weed control at 280 g/ha ([7]; 336 h, 14 DAA): 63%
- pest or weed control at 560 g/ha ([7]; 336 h, 14 DAA): 50%
- pest or weed control at 280 g/ha ([7]; 504 h, 21 DAA): 58%
- pest or weed control at 560 g/ha ([7]; 504 h, 21 DAA): 33%
